According to article PMC7814043, “Pan RAS-binding compounds selected from a chemical library by inhibiting interaction between RAS and a reduced affinity intracellular antibody” (Scientific Reports, 2021):

Tests used:
[1] = target: T1, HRAS^G12V-GTP / scFv RASdm interaction (Homo sapiens, UniProt P01112, G12V); assay: AlphaScreen of interaction between GST-HRAS^G12V-GTPγS and His-tagged scFv RASdm; type: biochemical; conditions: dose-response Alpha assay
T1 construct: made in house; host or cells: E. coli C41(DE3)
T1 sequence (P01112 whole entry G12V): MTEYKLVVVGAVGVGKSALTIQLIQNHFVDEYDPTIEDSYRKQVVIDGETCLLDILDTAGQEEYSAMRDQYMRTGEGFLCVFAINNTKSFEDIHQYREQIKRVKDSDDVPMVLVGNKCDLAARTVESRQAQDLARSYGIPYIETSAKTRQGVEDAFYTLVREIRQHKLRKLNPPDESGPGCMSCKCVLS
Text: An AlphaScreen assay was established with GST-HRAS^G12V-GTP bound to GST-beads and HIS-tagged scFv RASdm bound to nickel-beads. The Alpha assay comprised interaction of anti-RAS and HRAS proteins and signal from the acceptor beads generated after excitation of the donor nickel-beads (depicted in Supplementary Fig. 3A). […] The interactions were optimized for protein concentrations linked to the donor and acceptor beads (Supplementary Fig. 3C,D). The interaction of HRAS^G12V-GTP with the dematured anti-RAS scFv was robust (Supplementary Fig. 3D) yielding Z factors of 0.74–0.85 being considered suitable for high throughput screen. […]
The AlphaScreen assay (Perkin Elmer) was performed in a 8 μl final volume in 1536-well white microtiter plates (Greiner). […] Exposure of the reaction to direct light was avoided and the emission of light from the acceptor beads was measured in the EnVision plate reader (Perkin Elmer) and analyzed using the EnVision manager software. […]
Panel A: AlphaLISA glutathione (GSH) acceptor beads were used to capture GST-HRAS loaded with GTPγS (Ag). […] Following incubation, nickel (Ni) chelate donor AlphaLISA beads were added and the chemiluminescence signal detected on an PE Envision plate reader. […]

[2] = target: T2, non-mutated anti-RAS scFv / HRAS^G12V interaction (Homo sapiens, UniProt P01112, G12V); assay: Alpha assay of non-mutated anti-RAS scFv with HRAS^G12V (identical protocol, unpublished data); type: biochemical
T2 construct: made in house; host or cells: E. coli C41(DE3)
T2 sequence (P01112 whole entry G12V): as above
Text: We have used the RAS protein as a target for this method as this was previously regarded as undruggable[9]–[11]. We provide further evidence of RAS druggability and that antibody binding sites can be employed to select small molecules for drug discovery as starting chemical matter for medicinal chemistry drug development campaigns. Compound A (Fig. 3A) is a heterocycle that would require crystal soaking to facilitate structure-based drug design to place this on a formal drug development programme. […] Further, the low Kd in SPR (Fig. 4), lack of inhibitory effect in Alpha controls (Fig. 3) argue against chemical reactivity as the reason for the Alpha assay inhibition. […] The low binding strength of these initial library hits, in turn resulting from the small size of the chemical library used, would preclude meaningful cell-assays at this stage.

[3] = target: HRAS-GPPNHP (Homo sapiens, UniProt P01112); assay: SPR of compound on biotinylated RAS isoform (streptavidin chip); type: binding
Sequence of HRAS-GPPNHP (P01112 1-166): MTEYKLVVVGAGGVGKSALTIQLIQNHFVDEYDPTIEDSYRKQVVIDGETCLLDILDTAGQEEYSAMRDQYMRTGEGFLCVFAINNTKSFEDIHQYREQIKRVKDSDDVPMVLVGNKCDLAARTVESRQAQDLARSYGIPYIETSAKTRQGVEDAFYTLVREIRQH

[4] = tested on: KRAS, HRAS and NRAS-GTP proteins; assay: SPR over the three RAS isoforms (average / overall)
Protocol: Accordingly, we used SPR to determine direct RAS-binding and because the anti-RAS intracellular antibody interacts with the three isoforms of activated RAS[3], we assessed if the compounds also show a pan-RAS binding.
The protein extracts were loaded with GPPNHP (a non-hydrolysable GTP analogue) as described[19] and biotinylated by incubation with BirA overnight at 4 °C. […] SPR experiments were performed using BIAcore T100 (GE Healthcare). […] The chip was prepared with 3 × 30 s injections of 1 M NaCl/50 mM NaOH at 10 µL/min flow rate, before biotinylated RAS proteins were injected at 25 µg/mL with 10 µL/min flow rate until 4000–5000 RU protein was captured.

[5] = target: KRAS^G12V-GPPNHP (Homo sapiens, UniProt P01116, G12V); assay: SPR of compound on biotinylated RAS isoform (streptavidin chip); type: binding
[6] = tested on: dopamine D1 receptor; conditions: cited from earlier work
[7] = target: NRAS-GPPNHP (Homo sapiens, UniProt P01111); assay: SPR of compound on biotinylated RAS isoform (streptavidin chip); type: binding
Sequence of NRAS-GPPNHP (P01111 1-166): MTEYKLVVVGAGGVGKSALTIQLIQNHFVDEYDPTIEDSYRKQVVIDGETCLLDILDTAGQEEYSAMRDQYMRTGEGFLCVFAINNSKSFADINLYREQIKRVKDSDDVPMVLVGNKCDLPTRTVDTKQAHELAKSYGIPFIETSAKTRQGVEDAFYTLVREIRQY

Compound | IC50 [1] [µM] | inhibition of interaction between non-mutated anti-RAS scFv and HRAS^G12V [2] | Rmax ([3]; Figure 4E) [RU] | Kd ([3]; HRAS) [µM] | response in SPR analysis ([4]; KRAS, HRAS and NRAS proteins) | Kd ([4]; read-out: average Kd, average over KRAS, HRAS and NRAS) [µM] | Rmax ([5]; Figure 4D) [RU] | Kd ([5]; KRAS) [µM] | dopamine D1 receptor activity [6] | Rmax ([7]; Figure 4F) [RU] | Kd ([7]; NRAS) [µM]
CCCn1c(=O)c2[nH]c(C3CCCC3)nc2n(CCCOC(=O)c2ccc(S(=O)(=O)F)cc2)c1=O [Compound A, 8-Cyclopentyl-3-(3-((4-(fluorosulfonyl)benzoyl)oxy)propyl)-1-propylxanthine] | 2 | no inhibition | – | – | – | – | – | – | – | – | –
CN1Cc2ccccc2C2c3cccc4[nH]cc(c34)CC21 (stereo not drawn) [compound B, 4,6,6a,7,8,12b-hexahydro-7-methylindolo(4,3-ab)-phenanthridine] | 6 | – | 3.5 | 30 | low response | 37 | 6.7 | 47 | weak dopamine D1 receptor agonist | 6.8 | 35
